Data set [1] deals with SW480 (colon adenocarcinoma). Set-up: method as in PMID 36432656. As to conditions: MTT, 96 h; cited from earlier work.
For data set [2], the system named is CH1/PA-1 (ovarian teratocarcinoma). Set-up: method as in PMID 36432656. The note with it: MTT, 96 h; cited from earlier work.
Data set [3] has as its system A549 (non-small-cell lung carcinoma). Set-up: method as in PMID 36432656. The note with it: MTT, 96 h; cited from earlier work.
Data set [4] concerns CH1/PA-1 (ovarian teratocarcinoma). As to the kind of experiment: MTT cytotoxicity assay, CH1/PA-1 cells (96 h). Format: cell-based, human. As for the experimental part: (§1) Cell culture of the cell lines CH1/PA-1, SW480 and A549 was performed as described in reference. 4T1 cells were purchased from American Type Culture Collection, stored in a liquid nitrogen dewar and cultured in Roswell Park Memorial Institute (RPMI)-1640 medium supplemented with 10% foetal bovine serum (FBS) (Thermo Fisher, Waltham, MA, USA).
(§2) Cytotoxicity tests (96 h incubation) in the cell lines CH1/PA-1, SW480 and A549 were conducted as described in reference. Compounds were dissolved in supplemented minimum essential medium (MEM), except for compound C10, which was dissolved in sterile Milli-Q water.
(§3) Based on the required solubility, conjugates C1–C12 were forwarded for cytotoxicity assessments, whereas conjugates S1–S5 could not be tested due to solubility issues (Supporting Information, Table S1). The twelve substances C1–C12 were examined in comparison to the free platinum(IV) complexes and the unloaded dGC polymers with three different chain lengths for their cytotoxic activity in vitro. For this purpose, the colorimetric MTT assay was used in three human cancer cell lines (A549 (non-small-cell lung carcinoma), CH1/PA-1 (ovarian teratocarcinoma) and SW480 (colon adenocarcinoma)), yielding IC50 values in the low micromolar to nanomolar concentration range for all conjugates (Table 3, Supporting Information, Figures S18–S20). The three tested cell lines differ in their platinum sensitivity. SW480 and A549 cells are intrinsically cisplatin- and carboplatin-resistant due to their low expression of CTR1, whereas CH1/PA-1 cells show high chemosensitivity, particularly to platinum drugs.

Data set [5] has as its system A549 (non-small-cell lung carcinoma). As to the kind of experiment: MTT cytotoxicity assay, A549 cells (96 h). Format: cell-based, human. On the procedure:
as §1, §2, §3

The subject of data set [6] is SW480 (colon adenocarcinoma). As to the kind of experiment: MTT cytotoxicity assay, SW480 cells (96 h). The class given is cell-based, human. On the procedure: as §1, §2, §3
On the technique in general: Formazan colour is commonly taken as a measure of viable cells.

Data set [7] can be described thus: Biodistribution study (platinum content of organs by ICP-MS) in non-tumour-bearing mice. Format: in vivo, Balb/C mice. As for the experimental part: The Animal Welfare and Ethical Review Body at University College London (UCL) authorised all animal experiments, which were performed under license from the Home Office, UK. […] All substances were applied intravenously (100 µL stock/20 g body weight) via tail vein injection. At the chosen time points, animals were culled with CO2, and the major organs (lung, heart, liver, spleen and kidneys) were collected and frozen in liquid nitrogen. The samples were transferred to the Institute of Inorganic Chemistry, University of Vienna, Austria, where the total platinum content of each sample was determined with an Agilent 7500 ICP-quadrupole MS instrument.
The major organs of liver, lung, heart, kidney and spleen were collected after two specific time points (1 h and 24 h), and the platinum content of each organ was evaluated with ICP-MS analysis (Figure 3).

Setting [8] is: MTT, 96 h incubation, read-out: IC50 [µM] CH1/PA-1.
The mark [9] stands for this setting: free platinum(IV) complexes: equals measured IC50 of Table 3, read-out: Concentration of Pt(IV) Units at IC50 [µM] CH1/PA-1.
[10] abbreviates: MTT, 96 h incubation, read-out: IC50 [µM] A549.
Where [11] appears, read: free platinum(IV) complexes: equals measured IC50 of Table 3, read-out: Concentration of Pt(IV) Units at IC50 [µM] A549.
Setting [12] is: MTT, 96 h incubation, read-out: IC50 [µM] SW480.
Where [13] appears, read: free platinum(IV) complexes: equals measured IC50 of Table 3, read-out: Concentration of Pt(IV) Units at IC50 [µM] SW480.

Where two headings read alike, the source gives them in different places.

As to `N.N.O=C([O-])C1(C(=O)[O-])CCC1.[Pt+2]` [Carboplatin, carboplatin], the IC50 in data set [1] was 42 ± 10 µM; in data set [2], 0.79 ± 0.11 µM; in data set [3], 38 ± 3 µM.

As to `N.N.[Cl][Pt][Cl]` [Cisplatin, cisplatin], the IC50 was 2.3 ± 0.2 µM in data set [1], 0.073 ± 0.001 µM in data set [2] and 3.8 ± 1 µM in data set [3].

Regarding `O=C1[O][Pt]2([NH][C@@H]3CCCC[C@H]3[NH]2)[O]C1=O` [Oxaliplatin, oxaliplatin], the IC50 in data set [1] was 0.29 ± 0.05 µM; in data set [2] it was 0.18 ± 0.01 µM; in data set [3], 0.98 ± 0.21 µM.

Turning to “(OC-6-44)-Acetaodiammine(3-carboxypropanoato)(cyclobutane-1,1-dicarboxylato)platinum(IV) [compound 4]”, the IC50 in data set [4] (setting [8]) is 16 ± 6 µM; in data set [4] (setting [9]), 16 ± 6 µM; in data set [5] (setting [10]), greater than 200 µM; in data set [5] (setting [11]) it was greater than 200 µM; in data set [6] (setting [12]), greater than 200 µM; in data set [6] (setting [13]), greater than 200 µM.

For “(OC-6-44)-Acetato(3-carboxypropanoato)(1R,2R-cyclohexane-1,2-diamine)oxalatoplatinum(IV) [compound 6]”, the IC50 in data set [4] (setting [8]) came to 4.1 ± 0.6 µM; in data set [4] (setting [9]), 4.1 ± 0.6 µM; in data set [5] (setting [10]), 70 ± 29 µM; in data set [6] (setting [12]), 22 ± 8 µM. For the same molecule, the “organ distribution of platinum (ICP-MS)” value in data set [7] (1 h post i.v. administration, 6: 0.15 mg/100 µL, V3: 0.41 mg/100 µL) was “highest concentrations in the excretory organs (kidney and liver)”. For the same molecule, in data set [7] (24 h post i.v. injection, 6: 0.15 mg/100 µL, V3: 0.41 mg/100 µL), the “change of platinum amount in organs at 24 h vs 1 h” value was “only slightly raised in all systemic organs”. Besides, the “increase of platinum amount in the kidneys after 24 h vs 1 h” value in data set [7] (i.v., 0.15 mg/100 µL (5.5 mg/kg oxaliplatin equivalent), female Balb/C mice) amounted to 2.1 fold. For the same molecule, the tolerability in mice result in data set [7] (i.v., 6: equivalent to 5.5 mg/kg oxaliplatin, V3: equivalent to 2.75 mg/kg oxaliplatin) is listed as “well tolerated without signs of toxicity”.

Consider “(OC-6-44)-Acetatodiammine(3-carboxypropanoato)dichloridoplatinum(IV) [compound 2]”, for which the IC50 was 1.2 ± 0.5 µM in data set [4] (setting [8]); 1.2 ± 0.5 µM in data set [4] (setting [9]); 99 ± 17 µM in data set [5] (setting [10]); 99 ± 17 µM in data set [5] (setting [11]); 47 ± 10 µM in data set [6] (setting [12]); 47 ± 10 µM in data set [6] (setting [13]).

These data come from PMC10145531, “Platinum(IV)-Loaded Degraded Glycol Chitosan as Efficient Platinum(IV) Drug Delivery Platform” (Pharmaceutics, 2023).
